Measurements: paper PMC11579209, “Population pharmacokinetics and exposure–response relationships of maribavir in transplant recipients with cytomegalovirus infection” (Journal of Pharmacokinetics and Pharmacodynamics, 2024)
Where two headings read alike, the source gives them in different places.

Legend:
[1] = cited from earlier work
[2] = design: method as in PMID 31532960, PMID 30329038; settings: doses up to 1200 mg BID, cited from earlier work
CMV = experiment: Exposure–response analysis of efficacy, key secondary endpoint: CMV viremia clearance and symptom control at week 8 maintained through week 16 (SOLSTICE); type: in vivo, human
Method: The exposure–response analyses for maribavir were based on data collected from transplant recipients with CMV infections that were refractory to treatment with ganciclovir, valganciclovir, foscarnet, or cidofovir in the phase 3 SOLSTICE study (ClinicalTrials.gov: NCT02931539). SOLSTICE was a multicenter, open-label, active-controlled study in which patients were randomized 2:1 to receive maribavir 400 mg BID or IAT for 8 weeks, with 12 weeks of follow-up. The primary endpoint was confirmed CMV clearance at the end of week 8, and the key secondary endpoint was achievement of CMV clearance and symptom control at the end of week 8, maintained through week 16. TE CMV mutation conferring resistance to maribavir was assessed as an exploratory endpoint. Full details of the SOLSTICE study have been published previously.
Posterior Bayes parameters of the final PopPK model were used to derive rich concentration–time profiles for maribavir. Actual dosing history and factors affecting the PK of maribavir (i.e., body weight and time-varying presence of strong CYP3A4 inhibitors or strong CYP3A4 inducers) were considered in the predictions.
Data set preparation, exploration, visualization of the data and exposure-response analyses were performed using R® (version 4.0.5 for efficacy and resistance analyses; version 4.0.2 for safety analysis) with comprehensive R® archive network (CRAN) and Certara Strategic Consulting (CSC) package. Firth correction on logistic regression was done based on library “logistf”. Logistic regressions with log-linear exposure effect or Emax exposure effect were performed using NONMEM Version VII (version 7.4).
Maribavir exposure parameters (AUCss, Cmax.ss, and Ctrough.ss) were combined with the primary and key secondary efficacy endpoints, and with TE CMV mutations conferring resistance to maribavir from the SOLSTICE study. The following covariates were included in the dataset to identify potential influencing factors: transplant type (HCT, SOT); CMV DNA level (high, intermediate, low) at baseline; symptom status (symptomatic or asymptomatic) at baseline; CMV resistant at baseline (yes, no); donor (D) and recipient (R) CMV serostatus (D+/R−, D+/R+, or D−/R+, D−/R−); antilymphocyte use (yes, no); immune function status as measured by total white blood cells from hematology panel at baseline; CMV-specific CD4 + CD69 + and CD8 + CD69 + T cells from immune function assay as continuous variables at baseline; enrolling region (North America, Europe, Asia Pacific); prior use of CMV prophylaxis (yes, no); age (as a continuous parameter) and age group (12 to < 18 years; 18 to < 45 years; 45 to < 65 years; ≥65 years); sex (male, female); race and ethnicity; TE CMV maribavir-resistant mutations (yes, no); and temporal identification of maribavir resistance (no, on maribavir treatment, post-maribavir treatment).
The exposure–response analyses were performed using a logistic regression model whereby a response can be defined as 0 (non-responder) or 1 (responder). Logistic regression analyses were performed to explore potential associations with maribavir exposure and the probability of response. The logistic regression model had the following form, assuming that maribavir exposure is included in the model:1 [drawing 1]
Pi is the probability of the event in the ith patient and α is the baseline Ln (odds) of the event. The model assumes a linear exposure effect on logit scale, with the parameter α representing the intercept, while β1 represents the slope linking the exposure parameter (X1) of maribavir (AUCss, Cmax.ss, and Ctrough.ss) to the response. The statistical significance of α and β1 was tested in the logistic regression models with a p value of < 0.05, and 95% CIs were provided for each parameter. The odds ratio (OR) for β1 was derived for a specific unit increment of the PK parameter. […]

plasma proteins = system: plasma proteins; design: method as in earlier work; settings: cited from earlier work
[3] = system: Cytochrome P450 (CYP) 1A2; design: method as in PMID 12654667, doi:10.1016/j.bbmt.2018.12.600; settings: formation of VP44469; cited from earlier work
[4] = key secondary endpoint, reference <0.5%

SMILES: CC(C)Nc1nc2cc(Cl)c(Cl)cc2n1[C@H]1O[C@@H](CO)[C@H](O)[C@@H]1O [maribavir]
- Time to steady-state exposure ([1]; 400 mg BID, transplant recipients with CMV infection): ≤ 2 days
- PK in patients with mild or moderate hepatic impairment [1]: unaffected
- Renal excretion as share of total clearance of unchanged drug [1]: < 2%
- Systemic exposure in healthy Japanese individuals compared with White individuals [1]: higher
- Mean half-life ([1]; healthy volunteers): 3.0 to 4.8 h
- Median time to maximum plasma concentration (Tmax) ([1]; oral administration): 1 to 3 h
- Dose proportionality of PK ([1]; single doses of up to 1600 mg and multiple doses up to 2400 mg per day): dose-proportional
- Mean half-life ([1]; transplant recipients): 4.3 h
- Dose-related myelosuppression [2]: no evidence of dose-related myelosuppression
- Incidence of dysgeusia across doses ([2]; transplant recipients with refractory CMV infection): similar
- Proportion of responders, key secondary endpoint (CMV; 1st quartile of AUCss): 31%
- Proportion of responders, key secondary endpoint (CMV; 2nd quartile of AUCss): 25%
- Proportion of responders, key secondary endpoint (CMV; 3rd quartile of AUCss, n = 9): 16%
- Proportion of responders, key secondary endpoint (CMV; 4th quartile of AUCss, n = 3): 5%
- Probability of being a responder, key secondary endpoint (CMV; baseline CD8 + CD69 + cell count ≥ 2%, otherwise reference, AUCss 200 µg∙h/mL): 77.9%
- Probability of being a responder, key secondary endpoint (CMV; developed TE CMV maribavir-resistant mutation, CD8 + CD69 + < 0.5%, low CMV DNA, no prior prophylaxis, AUCss 200 µg∙h/mL): 2.5%
- Patients meeting key secondary endpoint (clearance and symptom control at week 8, maintained through week 16) (CMV; exposure–response population n = 231, 400 mg BID, 44 patients): 19%
- Probability of being a responder, key secondary endpoint (CMV; intermediate/high CMV DNA levels, otherwise reference, AUCss 200 µg∙h/mL): 19.7%
- Logistic regression Estimate (SE): Intercept (CMV; key secondary endpoint): 0.814 (0.543)
- OR (95% CI): prior use of CMV prophylaxis (CMV; key secondary endpoint): 0.441 (0.191, 0.969)
- OR (95% CI): treatment-emergent CMV mutation conferring resistance to maribavir (CMV; key secondary endpoint): 0.0381 (2.97×10^–4, 0.284)
- OR (95% CI): AUCss of maribavir (CMV; key secondary endpoint, increment of 50 µg·h/mL): 0.740 (0.611, 0.870)
- Logistic regression Estimate (SE): baseline CD8+CD69+ cell count ≥2% (CMV; [4]): 1.65 (0.552)
- OR (95% CI): baseline CD8+CD69+ cell count not reported (CMV; [4]): 0.899 (0.326, 2.34)
- OR (95% CI): baseline CD8+CD69+ cell count ≥0.5% to <2% (CMV; [4]): 0.594 (0.159, 1.88)
- OR (95% CI): baseline CD8+CD69+ cell count ≥2% (CMV; [4]): 5.18 (1.82, 15.9)
- OR (95% CI): baseline CMV DNA level intermediate/high (CMV; key secondary endpoint, reference low): 0.363 (0.129, 0.910)
- Relationship between maribavir exposure (AUCss) and probability of response for the key secondary endpoint (CMV; p = 0.001): negative relationship
- Probability of being a responder, key secondary endpoint (CMV; prior use of CMV prophylaxis, otherwise reference, AUCss 200 µg·h/mL): 23.0%
- Probability of being a responder, key secondary endpoint (CMV; reference: no TE mutation, CD8 + CD69 + < 0.5%, low CMV DNA, no prior prophylaxis, AUCss 200 µg∙h/mL): 40.3%
- Bound to plasma proteins (plasma proteins): approximately 98%
- Share of CYP-mediated metabolism by CYP1A2 [3]: 15–30%
